Assay results from ChEMBL document CHEMBL1201862, “PubChem BioAssay data set” (2004).
Calls of active or inactive are those of the source.

What was measured:
[1] = molecular target: T1, Type-1 angiotensin II receptor (Homo sapiens, UniProt P30556); test: agonist activity at AGTR1 – cell-based, uHTS hits, selectivity assay for APJ receptor agonist project, dose response (AID 488865); type: functional;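 also: beta-arrestin recruitment to AT1 measured by enzyme fragment complementation luminescence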
T1 sequence (P30556 whole entry): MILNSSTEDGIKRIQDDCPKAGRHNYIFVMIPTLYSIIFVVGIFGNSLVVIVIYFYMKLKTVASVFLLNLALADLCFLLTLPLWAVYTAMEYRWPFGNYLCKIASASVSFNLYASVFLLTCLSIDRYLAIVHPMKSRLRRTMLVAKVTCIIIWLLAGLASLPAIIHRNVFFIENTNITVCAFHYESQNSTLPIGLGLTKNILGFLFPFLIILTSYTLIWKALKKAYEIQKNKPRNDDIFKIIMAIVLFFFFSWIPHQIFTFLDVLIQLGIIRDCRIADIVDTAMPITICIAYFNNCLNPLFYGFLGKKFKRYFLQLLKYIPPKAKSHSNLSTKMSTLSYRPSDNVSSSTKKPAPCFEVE

[2] = molecular target: T2, Protein Tat (Human immunodeficiency virus type 1 group M subtype B (isolate HXB2)(HIV-1), UniProt P04608); type: functional;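 also: tat binding to TAR RNA read out by fluorescence polarization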
T2 sequence (P04608 whole entry): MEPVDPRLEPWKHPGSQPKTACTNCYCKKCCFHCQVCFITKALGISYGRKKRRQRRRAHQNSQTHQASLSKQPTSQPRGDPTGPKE

[3] = system: Streptococcus sp. 'group A'; test: Streptococcus pyogenes SK(-)GAS viability under kanamycin – luminescence, BacTiterGlo, confirmation, counter-screen for streptokinase expression inhibitor project, dose response (AID 1900); type: functional, organism-based
[4] = molecular target: T3, SUMO-activating enzyme (Homo sapiens, UniProt Q9UBT2); test: blockers of UBC9-mediated SUMO conjugation – biochemical, AlphaScreen, SUMOylation inhibitor project, confirmation (AID 2018); type: functional
T3 sequence (Q9UBE0 whole entry): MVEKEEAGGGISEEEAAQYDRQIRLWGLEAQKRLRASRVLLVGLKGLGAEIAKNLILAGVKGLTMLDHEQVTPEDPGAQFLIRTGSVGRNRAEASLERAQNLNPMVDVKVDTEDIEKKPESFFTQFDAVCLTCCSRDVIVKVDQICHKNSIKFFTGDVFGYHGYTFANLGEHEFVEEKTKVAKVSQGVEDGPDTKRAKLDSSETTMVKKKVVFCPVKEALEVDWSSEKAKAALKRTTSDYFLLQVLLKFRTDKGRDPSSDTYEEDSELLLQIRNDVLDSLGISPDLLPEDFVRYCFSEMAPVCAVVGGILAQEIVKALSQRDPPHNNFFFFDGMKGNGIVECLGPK
T3 sequence (Q9UBT2 whole entry): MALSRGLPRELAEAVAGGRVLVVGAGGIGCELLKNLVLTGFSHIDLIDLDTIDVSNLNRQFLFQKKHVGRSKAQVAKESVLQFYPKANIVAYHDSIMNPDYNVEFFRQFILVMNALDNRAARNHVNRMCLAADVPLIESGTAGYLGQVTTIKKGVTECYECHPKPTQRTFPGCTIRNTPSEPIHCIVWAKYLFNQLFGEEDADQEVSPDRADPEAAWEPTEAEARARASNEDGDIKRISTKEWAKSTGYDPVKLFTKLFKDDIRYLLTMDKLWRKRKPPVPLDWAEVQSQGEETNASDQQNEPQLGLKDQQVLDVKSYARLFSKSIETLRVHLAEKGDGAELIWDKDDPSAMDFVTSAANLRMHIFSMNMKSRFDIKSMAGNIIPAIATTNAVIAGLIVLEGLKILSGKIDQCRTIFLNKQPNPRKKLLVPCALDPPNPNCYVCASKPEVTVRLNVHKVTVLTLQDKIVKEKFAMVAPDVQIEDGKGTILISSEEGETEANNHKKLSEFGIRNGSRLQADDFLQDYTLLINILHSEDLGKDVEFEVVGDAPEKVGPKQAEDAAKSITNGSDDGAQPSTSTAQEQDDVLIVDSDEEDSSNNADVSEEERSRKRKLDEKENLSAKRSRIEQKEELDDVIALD

[5] = molecular target: T4, Streptokinase A (Streptococcus pyogenes serotype M1, UniProt P10520); test: viability-normalized secreted streptokinase activity reduction – plasminogen activation absorbance, OD405, dose response (AID 1914); type: functional, Streptococcus pyogenes M1 GAS;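 also: secreted streptokinase activity via plasminogen activation per viability signal from cell pellet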
T4 sequence (P10520 whole entry): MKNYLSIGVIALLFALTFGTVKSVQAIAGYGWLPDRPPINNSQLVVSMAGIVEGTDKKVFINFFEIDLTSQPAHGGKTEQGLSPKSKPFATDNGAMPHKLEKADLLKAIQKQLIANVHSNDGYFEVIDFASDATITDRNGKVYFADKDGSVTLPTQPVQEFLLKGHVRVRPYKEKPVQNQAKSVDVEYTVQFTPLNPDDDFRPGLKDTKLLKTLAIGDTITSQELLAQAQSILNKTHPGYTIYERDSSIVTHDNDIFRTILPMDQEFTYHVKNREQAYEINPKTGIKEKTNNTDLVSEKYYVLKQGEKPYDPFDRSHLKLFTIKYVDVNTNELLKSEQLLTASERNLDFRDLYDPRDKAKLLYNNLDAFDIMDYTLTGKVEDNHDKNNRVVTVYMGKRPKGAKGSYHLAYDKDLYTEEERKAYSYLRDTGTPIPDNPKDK

[6] = molecular target: T3, SUMO-activating enzyme; test: blockers of SAE1/SAE2–UBC9 SUMO transfer – biochemical, HTRF, uHTS, primary screen (AID 2006); type: protein-complex assay
[7] = viability of PTEN-deleted HCT116 cells – cell-based, HCT116 PTEN knockout, dose response (AID 1047); type: functional;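 also: HCT116 colon tumor cells with PTEN knocked out; cells exposed to compound for 60 hours before readout; potency for loss of cell viability measured by luminescence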
[8] = viability of HCT116 lacking mutant beta-catenin – cell-based, human colon tumor, dose response (AID 1045); type: functional;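 also: HCT116 colon tumor cells with beta catenin knocked out; cells exposed to compound for 60 hours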
[9] = system: Streptococcus; test: GAS UMAA2166 growth inhibition – luminescence, BacTiterGlo, counter-screen for streptokinase expression inhibitor project, dose response (AID 1915); type: functional, organism-based;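 also: potency for reduction of bacterial viability or growth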
[10] = molecular target: T5, Carboxy-terminal domain RNA polymerase II polypeptide A small phosphatase 1 (Homo sapiens, UniProt Q9GZU7); test: CTDSP1 inhibitors, concentration-response, biochemical, absorbance readout, ultra-high-throughput screen actives (AID 540297); type: functional
T5 sequence (Q9GZU7 whole entry): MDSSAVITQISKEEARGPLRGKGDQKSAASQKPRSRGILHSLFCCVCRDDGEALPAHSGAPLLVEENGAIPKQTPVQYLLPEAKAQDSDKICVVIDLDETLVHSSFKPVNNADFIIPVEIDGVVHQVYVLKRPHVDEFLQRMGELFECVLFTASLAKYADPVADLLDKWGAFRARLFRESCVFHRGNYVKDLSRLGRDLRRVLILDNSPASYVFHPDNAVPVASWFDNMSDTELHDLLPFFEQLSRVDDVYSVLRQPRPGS

[11] = molecular target: T6, Intestinal-type alkaline phosphatase (Homo sapiens, UniProt P09923); test: Dose Response confirmation of uHTS hits from a small molecule inhibitors of human intestinal alkaline phosphatase via a luminescent assay. [Related pubchem assays (depositor defined):AID2544, AID2574]; type: functional
T6 sequence (P09923 whole entry): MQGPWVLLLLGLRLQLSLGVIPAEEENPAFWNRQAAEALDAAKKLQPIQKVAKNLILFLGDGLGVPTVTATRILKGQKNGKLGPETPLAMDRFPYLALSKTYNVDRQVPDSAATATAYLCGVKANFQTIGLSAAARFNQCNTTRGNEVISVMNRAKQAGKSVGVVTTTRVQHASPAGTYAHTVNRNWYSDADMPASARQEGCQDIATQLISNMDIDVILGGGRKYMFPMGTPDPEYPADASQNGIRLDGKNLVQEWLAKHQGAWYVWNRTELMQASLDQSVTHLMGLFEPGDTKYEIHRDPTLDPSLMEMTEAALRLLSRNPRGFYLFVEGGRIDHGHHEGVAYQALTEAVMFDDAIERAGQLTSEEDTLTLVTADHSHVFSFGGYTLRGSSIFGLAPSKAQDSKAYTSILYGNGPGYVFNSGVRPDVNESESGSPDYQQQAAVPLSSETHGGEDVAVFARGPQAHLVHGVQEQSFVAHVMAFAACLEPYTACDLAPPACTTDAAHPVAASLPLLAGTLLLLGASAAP

[12] = molecular target: T6, Intestinal-type alkaline phosphatase; test: human intestinal alkaline phosphatase activators, dose response, biochemical, luminescence, uHTS hits (AID 463120); type: functional
[13] = molecular target: T7, G-protein coupled receptor 55 (Homo sapiens, UniProt Q9Y2T6); test: inhibition of LPI-stimulated GPR55 beta-arrestin translocation – imaging, U2OS, beta-arrestin-GFP, LPI agonist, primary screen (AID 2013); type: functional;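 also: antagonist potency measured as reduced agonist-driven arrestin aggregation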
T7 sequence (Q9Y2T6 whole entry): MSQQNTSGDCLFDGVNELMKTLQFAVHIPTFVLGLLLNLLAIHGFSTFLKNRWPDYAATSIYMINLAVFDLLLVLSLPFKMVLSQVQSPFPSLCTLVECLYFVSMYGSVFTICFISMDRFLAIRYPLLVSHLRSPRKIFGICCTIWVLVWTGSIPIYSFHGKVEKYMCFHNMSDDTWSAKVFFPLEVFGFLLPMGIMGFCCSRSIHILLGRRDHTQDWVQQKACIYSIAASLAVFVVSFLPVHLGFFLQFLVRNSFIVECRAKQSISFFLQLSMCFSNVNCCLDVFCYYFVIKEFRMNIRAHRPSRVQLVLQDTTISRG

[14] = molecular target: T8, Cannabinoid receptor 1 (Homo sapiens, UniProt P21554); test: SAR analysis of antagonists of the Cannabinoid Receptor 1 using an Image-Based Assay - Set 2. [Related pubchem assays (depositor defined):AID2013, AID2026]; type: functional
T8 sequence (P21554 whole entry): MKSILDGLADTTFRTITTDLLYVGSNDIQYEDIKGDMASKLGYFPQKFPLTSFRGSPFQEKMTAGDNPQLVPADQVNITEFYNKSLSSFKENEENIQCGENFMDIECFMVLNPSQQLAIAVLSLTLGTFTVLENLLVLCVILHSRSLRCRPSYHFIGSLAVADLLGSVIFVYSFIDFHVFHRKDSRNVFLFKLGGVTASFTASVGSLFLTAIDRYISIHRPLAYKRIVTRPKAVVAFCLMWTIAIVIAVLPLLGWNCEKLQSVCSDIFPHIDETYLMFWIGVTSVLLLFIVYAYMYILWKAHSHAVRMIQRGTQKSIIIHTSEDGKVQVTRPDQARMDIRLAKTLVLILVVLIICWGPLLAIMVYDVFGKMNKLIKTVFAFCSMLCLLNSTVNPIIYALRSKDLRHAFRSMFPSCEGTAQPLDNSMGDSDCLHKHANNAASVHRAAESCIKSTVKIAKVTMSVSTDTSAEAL

[15] = molecular target: T9, G-protein coupled receptor 35 (Homo sapiens, UniProt Q9HC97); test: SAR analysis of Agonists of the GPR35 Receptor using an Image-Based Assay - Set 2. [Related pubchem assays (depositor defined):AID2013, AID2026]; type: functional
T9 sequence (Q9HC97 whole entry): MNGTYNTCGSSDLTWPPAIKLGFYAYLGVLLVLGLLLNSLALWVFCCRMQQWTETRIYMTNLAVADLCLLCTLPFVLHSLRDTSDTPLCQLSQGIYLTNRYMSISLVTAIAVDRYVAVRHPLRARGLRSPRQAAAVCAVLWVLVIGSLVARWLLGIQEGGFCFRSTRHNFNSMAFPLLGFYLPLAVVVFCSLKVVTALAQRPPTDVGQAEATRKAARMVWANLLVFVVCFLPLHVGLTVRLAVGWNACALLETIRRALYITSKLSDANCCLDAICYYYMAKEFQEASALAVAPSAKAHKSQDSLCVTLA

[16] = molecular target: T10, Cannabinoid receptor 2 (Homo sapiens, UniProt P34972); test: SAR analysis of antagonists of the Cannabinoid Receptor 2 using an Image-Based Assay. [Related pubchem assays (depositor defined):AID2013, AID2026]; type: functional
T10 sequence (P34972 whole entry): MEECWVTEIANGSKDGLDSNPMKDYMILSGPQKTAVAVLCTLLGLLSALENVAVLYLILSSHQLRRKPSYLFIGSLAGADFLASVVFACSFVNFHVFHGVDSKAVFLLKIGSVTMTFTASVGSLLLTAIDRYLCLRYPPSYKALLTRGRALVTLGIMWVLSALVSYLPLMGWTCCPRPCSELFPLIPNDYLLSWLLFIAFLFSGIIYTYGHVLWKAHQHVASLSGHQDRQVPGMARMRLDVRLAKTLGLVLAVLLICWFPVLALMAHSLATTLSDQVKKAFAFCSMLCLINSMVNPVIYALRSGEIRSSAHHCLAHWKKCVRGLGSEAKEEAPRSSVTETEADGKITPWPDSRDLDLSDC

[17] = molecular target: T8, Cannabinoid receptor 1; test: SAR analysis of agonists of the Cannabinoid Receptor 1 using an Image-Based Assay - Set 2. [Related pubchem assays (depositor defined):AID2013, AID2026]; type: functional
[18] = molecular target: T9, G-protein coupled receptor 35; test: SAR analysis of Antagonists of the GPR35 Receptor using an Image-Based Assay - Set 3. [Related pubchem assays (depositor defined):AID2013, AID2026]; type: functional
[19] = molecular target: T7, G-protein coupled receptor 55; test: blockade of LPI-induced GPR55 arrestin translocation – imaging, U2OS, beta-arrestin-GFP, LPI agonist, set 2, SAR follow-up (AID 2820); type: functional
[20] = molecular target: T10, Cannabinoid receptor 2; test: SAR analysis of agonists of the Cannabinoid Receptor 2 using an Image-Based Assay. [Related pubchem assays (depositor defined):AID2013, AID2026]; type: functional
[21] = system: DLD-1; test: KLF5 protein lowering by immunoblot – western blot, chemiluminescence, DLD-1 cells, titration, orthogonal assay for KLF5 inhibitor project, late-stage follow-up (AID 485336); type: functional, cell-based; conditions: Homo sapiens
[22] = viability of uninfected HEp-2 cells – cell-based, HTS, cytotoxicity control for RSV inhibitor project, dose response (AID 2410); type: functional; conditions: human respiratory syncytial virus
[23] = Luminescence-based counterscreen assay for KLF5 inhibitors: dose response cell-based high throughput screening assay to identify cytotoxic compounds using the IEC-6 intestinal epithelial cell line. [Related pubchem assays: 1700 (Primary screen.), 1834 (Confirmation screen.), 1858 (Summary AID.), 1905 (Counterscreen.)]; type: functional
[24] = system: DLD-1; test: DLD-1 cell viability reduction – luminescence, round 1, cytotoxicity control for KLF5 inhibitor project, late-stage follow-up (AID 485338); type: functional, cell-based; conditions: Homo sapiens
[25] = Luminescence Cell-Based Dose Retest to Confirm Inhibitors of Cancer Stem Cells. [Related pubchem assays (depositor defined):AID2717, AID2721]; type: functional; conditions: Homo sapiens
[26] = molecular target: T11, Coagulation factor XII (Homo sapiens, UniProt P00748); test: Factor XIIa Dose Response Confirmation from Single Well HTS. [Related pubchem assays (depositor defined):AID701]; type: functional
T11 sequence (P00748 whole entry): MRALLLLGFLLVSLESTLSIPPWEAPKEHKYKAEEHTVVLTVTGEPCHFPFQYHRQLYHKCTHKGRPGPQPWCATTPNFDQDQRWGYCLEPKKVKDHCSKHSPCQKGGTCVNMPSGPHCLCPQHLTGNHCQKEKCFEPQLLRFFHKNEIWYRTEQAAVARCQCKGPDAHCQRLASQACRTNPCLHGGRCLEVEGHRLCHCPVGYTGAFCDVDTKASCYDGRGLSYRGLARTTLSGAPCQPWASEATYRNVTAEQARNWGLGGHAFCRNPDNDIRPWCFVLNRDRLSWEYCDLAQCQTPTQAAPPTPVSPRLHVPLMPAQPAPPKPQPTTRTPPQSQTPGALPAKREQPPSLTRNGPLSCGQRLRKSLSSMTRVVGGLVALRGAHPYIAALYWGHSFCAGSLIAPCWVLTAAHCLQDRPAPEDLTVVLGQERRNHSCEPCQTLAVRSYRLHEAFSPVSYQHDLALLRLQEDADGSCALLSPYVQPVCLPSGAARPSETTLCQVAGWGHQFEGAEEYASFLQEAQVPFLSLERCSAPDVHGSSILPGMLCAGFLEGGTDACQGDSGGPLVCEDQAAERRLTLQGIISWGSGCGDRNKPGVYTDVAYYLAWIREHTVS

[27] = molecular target: T12, Hexokinase HKDC1 (Homo sapiens, UniProt Q2TB90); test: activation of HKDC1 glucose phosphorylation – biochemical, W721R variant, dose response (AID 504730); type: functional
T12 sequence (Q2TB90 whole entry): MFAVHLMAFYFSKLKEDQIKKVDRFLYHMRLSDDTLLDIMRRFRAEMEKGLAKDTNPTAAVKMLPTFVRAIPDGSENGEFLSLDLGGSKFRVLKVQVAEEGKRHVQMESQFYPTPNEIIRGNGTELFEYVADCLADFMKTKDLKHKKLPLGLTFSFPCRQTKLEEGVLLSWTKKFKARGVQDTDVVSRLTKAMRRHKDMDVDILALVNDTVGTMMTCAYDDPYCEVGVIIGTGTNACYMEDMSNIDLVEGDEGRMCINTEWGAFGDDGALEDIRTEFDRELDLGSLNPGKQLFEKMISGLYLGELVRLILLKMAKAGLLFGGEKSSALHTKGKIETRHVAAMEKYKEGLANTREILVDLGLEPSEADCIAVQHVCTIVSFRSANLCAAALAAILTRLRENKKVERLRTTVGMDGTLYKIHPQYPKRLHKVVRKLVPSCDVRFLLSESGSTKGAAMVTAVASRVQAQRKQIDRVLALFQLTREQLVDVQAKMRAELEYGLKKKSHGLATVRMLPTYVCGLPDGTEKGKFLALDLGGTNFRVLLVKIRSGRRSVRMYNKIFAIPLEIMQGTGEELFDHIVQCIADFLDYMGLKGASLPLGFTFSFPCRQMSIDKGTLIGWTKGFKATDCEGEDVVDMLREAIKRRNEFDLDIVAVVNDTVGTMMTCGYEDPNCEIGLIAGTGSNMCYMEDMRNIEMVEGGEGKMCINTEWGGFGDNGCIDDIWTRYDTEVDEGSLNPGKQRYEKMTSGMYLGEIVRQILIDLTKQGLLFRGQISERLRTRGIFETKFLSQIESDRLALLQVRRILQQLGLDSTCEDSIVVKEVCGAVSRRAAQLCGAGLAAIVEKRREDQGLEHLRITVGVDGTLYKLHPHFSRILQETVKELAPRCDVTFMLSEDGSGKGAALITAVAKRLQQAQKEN

[28] = molecular target: Hexokinase-1 (Homo sapiens, UniProt P19367); test: HK1 enzyme activation by HKDC1 hits – biochemical, selectivity assay for HKDC1 activator project, dose response (AID 504762); type: functional
Chain of Hexokinase-1 (P19367 whole entry): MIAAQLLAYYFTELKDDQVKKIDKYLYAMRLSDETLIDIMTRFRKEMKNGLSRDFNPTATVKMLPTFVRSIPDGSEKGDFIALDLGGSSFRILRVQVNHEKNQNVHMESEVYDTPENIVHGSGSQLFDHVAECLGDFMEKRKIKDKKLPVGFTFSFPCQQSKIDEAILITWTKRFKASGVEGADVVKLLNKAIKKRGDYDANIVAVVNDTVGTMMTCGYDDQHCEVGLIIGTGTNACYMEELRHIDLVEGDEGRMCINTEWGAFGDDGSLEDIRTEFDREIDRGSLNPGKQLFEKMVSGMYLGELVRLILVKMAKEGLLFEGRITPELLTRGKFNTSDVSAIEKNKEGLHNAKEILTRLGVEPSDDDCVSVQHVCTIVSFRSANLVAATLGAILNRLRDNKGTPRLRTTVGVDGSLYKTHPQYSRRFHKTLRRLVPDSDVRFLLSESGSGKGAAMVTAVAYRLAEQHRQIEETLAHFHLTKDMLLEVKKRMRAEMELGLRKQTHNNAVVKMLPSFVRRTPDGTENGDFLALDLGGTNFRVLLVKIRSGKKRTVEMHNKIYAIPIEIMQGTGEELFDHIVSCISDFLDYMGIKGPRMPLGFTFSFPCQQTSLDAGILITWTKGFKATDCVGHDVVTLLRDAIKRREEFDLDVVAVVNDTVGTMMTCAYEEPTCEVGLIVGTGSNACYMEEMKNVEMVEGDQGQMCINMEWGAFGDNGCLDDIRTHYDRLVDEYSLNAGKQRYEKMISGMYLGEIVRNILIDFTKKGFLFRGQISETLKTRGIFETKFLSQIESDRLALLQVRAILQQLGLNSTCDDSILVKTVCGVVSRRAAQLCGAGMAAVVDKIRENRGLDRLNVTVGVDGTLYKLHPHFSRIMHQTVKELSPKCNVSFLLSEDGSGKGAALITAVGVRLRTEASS
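For AC50 in this document: cells exposed to compound for roughly 70 hours or longer before luminescence read.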

Structure (SMILES): COc1ccc2[nH]c(=O)c(CN(Cc3ccco3)C(c3nnnn3Cc3ccccc3)C(C)C)cc2c1 (stereo not given)
- EC50 [1]: > 100 µM (inactive)
- IC50 [2]: > 100 µM (active)

Structure (SMILES): COc1ccccc1-n1cnc2c(c1=O)c1nc3ccccc3nc1n2-c1ccc(C)c(C)c1
- EC50 [3]: 11.2 µM (active)
- IC50 [4]: 5.24 µM (active)
- EC50 [5]: > 150 µM (not active)
- IC50 [6]: 15.4 µM (active)
- EC50 [7]: 19.2 µM (active)
- EC50 [8]: 20.2 µM (active)
- EC50 [9]: 59 µM (active)
- IC50 [10]: 7.53 µM (active)

Structure (SMILES): COc1cccc(-c2nc(CS(=O)(=O)CC(=O)Nc3cc(OC)ccc3OC)c(C)o2)c1
- IC50 [11]: > 100 µM (inactive)
- EC50 [12]: > 100 µM (inactive)

Structure (SMILES): Cc1cccn2c(=O)c3cc(C(=O)NC4CCCC4)c(=N)n(C4CCCC4)c3nc12
- IC50 [13]: 1.24 µM (active)
- IC50 [14]: > 32 µM (inactive)
- EC50 [15]: > 32 µM (inactive)
- IC50 [16]: > 32 µM (inactive)
- EC50 [17]: > 32 µM (inactive)
- IC50 [18]: > 32 µM (inactive)
- IC50 [19]: 0.965 µM (active)
- EC50 [20]: > 32 µM (inactive)

Structure (SMILES): CN(C(=O)COC(=O)/C=C/c1cccc([N+](=O)[O-])c1)C1CCS(=O)(=O)C1 (stereo not given)
- IC50 [21]: 2.25 µM (active)
- CC50 [22]: 11.4 µM (active)
- IC50 [23]: 32.3 µM (not active)
- IC50 [24]: 3.57 µM (active)
- AC50 [25]: 1.43 µM (active)

Structure (SMILES): O=C(Oc1ccc(Cl)c2cccnc12)c1ccco1
- EC50 [3]: 3.93 µM (active)
- EC50 [9]: 11.6 µM (active)
- IC50 [26]: 21.6 µM (active)

Structure (SMILES): Cn1c(-c2ccccc2)c(C(=O)CC#N)c2ccccc21
- EC50 [27]: 39.2 µM (inactive)
- EC50 [28]: 32 µM (inactive)
